ChEMBL document CHEMBL1201862, “PubChem BioAssay data set” (2004)
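A five-concentration, 48-hour dose response in 96-well plates underlies each endpoint, interpolated linearly between surrounding concentrations. Here, GI50 denotes the concentration required for 50% inhibition of growth.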 Calls of active or inactive are those of the source. Cut-off read from the data, not from the text of the source: active = GI50 up to about 1.1 µM and inactive = higher.

Experiments:
Assay in all cases: DTP human tumour cell line panel, 48 h
DLD-1 = tested on: DLD-1
DMS-114 = tested on: DMS-114
HOP-18 = tested on: HOP-18
XF498 = tested on: XF498
DMS-273 = tested on: DMS-273
KM-20L2 = tested on: KM-20L2
RXF 631 = tested on: RXF 631
MDA-N = tested on: MDA-N

SMILES	GI50 (DLD-1)	GI50 (DMS-114)	GI50 (HOP-18)	GI50 (XF498)	GI50 (DMS-273)	GI50 (KM-20L2)	GI50 (RXF 631)	GI50 (MDA-N)
C/C(=N\N=C(/S)N1CC2CCC(CC2)C1)c1cccc[n+]1[O-]	2.06 µM (inactive)	1.35 µM (inactive)	30.3 µM (inactive)	21.4 µM (inactive)	2.62 µM (inactive)	1.52 µM (inactive)	3.45 µM (inactive)	14.2 µM (inactive)
Cc1ccccc1N(CCC#N)C1=NN(C(=O)CC(=O)Nc2ccc(Cl)cc2)C(c2ccccc2)C1 (stereo not given)	> 100 µM (inactive)	> 100 µM (inactive)	> 100 µM (inactive)		> 100 µM (inactive)	> 100 µM (inactive)	> 100 µM (inactive)	
Cn1cnc([N+](=O)[O-])c1Sc1nc2cccnc2s1	12.8 µM (inactive)	14.7 µM (inactive)		21 µM (inactive)	16.7 µM (inactive)	16.9 µM (inactive)	14.6 µM (inactive)	
Cc1c(C(=O)Nc2ccc(Cl)cc2)nc(N)nc1-c1cccc(Cl)c1	> 100 µM (inactive)	94.4 µM (inactive)	> 100 µM (inactive)		> 100 µM (inactive)	45.4 µM (inactive)	52.1 µM (inactive)	
COC[C@@H](/N=C/N1CCc2cc(OC)c(OC)cc2[C@@H]1C)C(C)(C)C	> 100 µM (inactive)	> 100 µM (inactive)	> 100 µM (inactive)	> 100 µM (inactive)		> 100 µM (inactive)	> 100 µM (inactive)	
COc1ccc2c(c1)[n+]([O-])c(-c1ccc([N+](=O)[O-])cc1)c(N)[n+]2[O-]	63.1 µM (inactive)	21.4 µM (inactive)	> 100 µM (inactive)		> 100 µM (inactive)	49.5 µM (inactive)	> 100 µM (inactive)	
Nc1c(Cl)ncnc1NCCCCCCCCCCCCNc1ncnc(Cl)c1N	2.73 µM (inactive)	< 0.01 µM (active)	5.48 µM (inactive)	0.593 µM (active)	1.74 µM (inactive)	7.11 µM (inactive)	1.94 µM (inactive)	
COC(=O)C(=O)CC(=O)CCn1ncc(Cl)c(Cl)c1=O	10.3 µM (inactive)	3.15 µM (inactive)		29 µM (inactive)	14.9 µM (inactive)	16.9 µM (inactive)	8.55 µM (inactive)	
CN(C)c1[se]nc2c1c(=O)n(C)c(=O)n2C	> 100 µM (inactive)	> 100 µM (inactive)	19.4 µM (inactive)	> 100 µM (inactive)	> 100 µM (inactive)	> 100 µM (inactive)	> 100 µM (inactive)	
O=C(CCc1nnc2s/c(=C\c3ccccc3[N+](=O)[O-])c(=O)n12)Nc1cc(Cl)c(Cl)cc1Cl	25.2 µM (inactive)	49.3 µM (inactive)	18.3 µM (inactive)	22.6 µM (inactive)	54.3 µM (inactive)	54 µM (inactive)	47.1 µM (inactive)	
CCC1(CN(C)C)CC/C(=C\c2ccc(OC)c(OC)c2)C1=O (stereo not given)	> 80.7 µM (inactive)	99.8 µM (inactive)	> 100 µM (inactive)	> 100 µM (inactive)	> 100 µM (inactive)	51.9 µM (inactive)	> 100 µM (inactive)	
O=C(NC1CCC[C@H]1OC(=O)c1ccccc1)c1ccccc1 (stereo not given in full)	24.4 µM (inactive)	> 10 µM (inactive)		35.3 µM (inactive)	95.7 µM (inactive)	> 10 µM (inactive)	66.8 µM (inactive)	
COc1cc2c(c(OC)c1OC)-c1ccc(SC)c(=O)cc1[C@@H](NC(=O)c1ccc([N+](=O)[O-])cc1)CC2	< 0.0025 µM (active)	< 0.0025 µM (active)		0.00746 µM (active)	< 0.0025 µM (active)	< 0.0025 µM (active)	< 0.01 µM (active)	
Nc1ccccc1S(=O)(=O)N(CC(=O)O)c1ccccc1	> 100 µM (inactive)		> 100 µM (inactive)	> 100 µM (inactive)	> 100 µM (inactive)	> 100 µM (inactive)	> 100 µM (inactive)	
